Earlier results in patent publication US20260199282A1, “METHODS AND COMPOSITIONS FOR IMPROVING DRIVING PERFORMANCE” (priority 2022, published 2026).

System: patients with narcolepsy or idiopathic hypersomnia
Conditions: modafinil 400 mg/day; ~1.5 hours post-dose; cited from earlier work

Structure (SMILES): NC(=O)C[S+]([O-])C(c1ccccc1)c1ccccc1 (stereo not shown) [modafinil]
- mean SDLP: 23.6±0.6 cm
